From US10934277B2, “Enantiomerically purified GPER agonist for use in treating disease states and conditions” (Linnaeus Therapeutics, Inc., priority 2018, dated 2021)

Key:
Format in all cases: in vitro ADME
OATP1B3 = target: T1, OATP1B3 (Homo sapiens, UniProt Q9NPD5); assay: Drug transporter fluorometric inhibition, OATP1B3
T1 sequence (Q9NPD5 1-702): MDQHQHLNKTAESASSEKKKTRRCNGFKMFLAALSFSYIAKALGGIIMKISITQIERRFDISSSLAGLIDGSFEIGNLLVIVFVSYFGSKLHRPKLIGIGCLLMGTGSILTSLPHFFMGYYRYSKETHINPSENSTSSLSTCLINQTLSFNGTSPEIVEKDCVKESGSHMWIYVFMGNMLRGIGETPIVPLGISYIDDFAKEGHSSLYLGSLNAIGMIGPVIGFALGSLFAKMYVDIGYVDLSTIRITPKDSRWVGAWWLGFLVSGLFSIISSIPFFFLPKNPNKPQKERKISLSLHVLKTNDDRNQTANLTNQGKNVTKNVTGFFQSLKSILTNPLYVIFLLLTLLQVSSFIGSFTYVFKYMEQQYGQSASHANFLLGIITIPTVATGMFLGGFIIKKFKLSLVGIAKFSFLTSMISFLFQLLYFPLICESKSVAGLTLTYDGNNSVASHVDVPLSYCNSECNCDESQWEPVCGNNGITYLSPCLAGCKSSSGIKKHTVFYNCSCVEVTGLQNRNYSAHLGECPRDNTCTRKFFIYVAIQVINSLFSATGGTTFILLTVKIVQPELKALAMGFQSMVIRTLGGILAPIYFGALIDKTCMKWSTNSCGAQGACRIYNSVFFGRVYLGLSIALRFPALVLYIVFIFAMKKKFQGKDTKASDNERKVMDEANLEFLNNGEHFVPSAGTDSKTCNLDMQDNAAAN
Description: Drug transporter (fluorometric inhibition)
The percent of control was calculated using the following equation. The percent of inhibition was calculated by subtracting the percent of control from 100. The IC50 value (concentration causing a half-maximal inhibition of the control value) was determined by non-linear regression analysis of the concentration-response curve using the Hill equation.
Compound is the individual reading in the presence of the test compound. T1 is the mean reading in the absence of the test compound. Background (for P-gp and BCRP) is the mean reading in the presence of the highest effective concentration of the reference inhibitor. Background (for OATP1B1, OATP1B3, OAT1, OAT3, and OCT2) is the mean reading in the absence of both the test compound and the substrate.

CYP2C9 = CYP2C9 (Homo sapiens, UniProt P11712); assay: in vitro
Description: (§1) Cytochrome P450 Inhibition (HPLC-UV/VIS and HPLC-MS/MS detection)
(§2) Peak areas corresponding to the metabolite of each substrate were recorded. The percent of control activity was then calculated by comparing the peak area obtained in the presence of the test compound to that obtained in the absence of the test compound. Subsequently, the percent inhibition was calculated by subtracting the percent control activity from 100 for each compound. IC50 values (concentration causing a half-maximal inhibition of control values) were determined by non-linear regression analysis of the concentration-response curve using Hill equation curve fitting.

CYP2D6 = CYP2D6 (Homo sapiens, UniProt P10635); assay: in vitro
Description: as §1, §2

CYP2C8 = target: T2, CYP2C8 (Homo sapiens, UniProt P10632); assay: in vitro
T2 sequence (P10632 1-490): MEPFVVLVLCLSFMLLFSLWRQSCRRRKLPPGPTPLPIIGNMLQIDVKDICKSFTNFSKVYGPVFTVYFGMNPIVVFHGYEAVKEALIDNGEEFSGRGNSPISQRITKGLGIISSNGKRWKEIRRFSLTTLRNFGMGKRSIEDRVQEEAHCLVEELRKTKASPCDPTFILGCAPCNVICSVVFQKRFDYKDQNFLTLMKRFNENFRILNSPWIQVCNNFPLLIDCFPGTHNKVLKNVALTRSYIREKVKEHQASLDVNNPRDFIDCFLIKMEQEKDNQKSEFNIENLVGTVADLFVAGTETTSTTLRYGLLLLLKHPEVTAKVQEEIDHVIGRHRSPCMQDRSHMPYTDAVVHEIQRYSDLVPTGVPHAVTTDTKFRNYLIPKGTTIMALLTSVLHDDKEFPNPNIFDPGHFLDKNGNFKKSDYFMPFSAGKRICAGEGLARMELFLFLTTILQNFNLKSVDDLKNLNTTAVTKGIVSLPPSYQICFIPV
Description: as §1, §2

Sequence of CYP2C9 (P11712 whole entry, species assumed): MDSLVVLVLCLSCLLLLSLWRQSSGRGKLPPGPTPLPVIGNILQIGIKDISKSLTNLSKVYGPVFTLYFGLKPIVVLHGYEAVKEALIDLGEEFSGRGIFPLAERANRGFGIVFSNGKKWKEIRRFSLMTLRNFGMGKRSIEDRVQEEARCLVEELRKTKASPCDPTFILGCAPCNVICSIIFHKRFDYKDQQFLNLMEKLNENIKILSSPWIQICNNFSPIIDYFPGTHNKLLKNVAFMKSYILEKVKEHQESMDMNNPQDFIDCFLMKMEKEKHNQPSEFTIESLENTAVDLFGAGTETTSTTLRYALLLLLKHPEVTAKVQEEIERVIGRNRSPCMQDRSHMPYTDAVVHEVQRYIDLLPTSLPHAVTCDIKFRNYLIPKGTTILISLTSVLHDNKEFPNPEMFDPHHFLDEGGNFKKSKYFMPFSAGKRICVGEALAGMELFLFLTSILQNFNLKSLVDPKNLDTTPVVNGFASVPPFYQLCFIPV
Sequence of CYP2D6 (P10635 whole entry, species assumed): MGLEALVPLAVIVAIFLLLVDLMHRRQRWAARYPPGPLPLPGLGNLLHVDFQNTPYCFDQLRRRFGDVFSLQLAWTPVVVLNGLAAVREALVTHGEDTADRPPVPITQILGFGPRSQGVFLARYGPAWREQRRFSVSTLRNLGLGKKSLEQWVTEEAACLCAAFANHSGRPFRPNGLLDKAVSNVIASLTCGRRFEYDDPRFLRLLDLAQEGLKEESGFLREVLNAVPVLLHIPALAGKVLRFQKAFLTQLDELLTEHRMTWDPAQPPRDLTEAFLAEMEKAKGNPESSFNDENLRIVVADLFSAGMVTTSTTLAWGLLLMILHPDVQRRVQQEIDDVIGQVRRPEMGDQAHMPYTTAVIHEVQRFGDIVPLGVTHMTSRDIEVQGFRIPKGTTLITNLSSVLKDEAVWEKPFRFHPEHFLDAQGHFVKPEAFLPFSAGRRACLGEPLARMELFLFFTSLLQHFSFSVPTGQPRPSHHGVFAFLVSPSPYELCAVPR

inhibition at 10 µM (OATP1B3) [%]	inhibition at 10 µM (CYP2C9) [%]	inhibition at 10 µM (CYP2D6) [%]	inhibition at 10 µM (CYP2C8) [%]	Compound
74.3	50.4			CC(=O)c1ccc2c(c1)[C@H]1C=CC[C@H]1[C@@H](c1cc3c(cc1Br)OCO3)N2 [RSS G-1, 1-((3aR,4S,9bS)-4-(6-bromobenzo[d][1,3]dioxol-5-yl)-3a,4,5,9b-tetrahydro-3H-cyclopenta[c]quinolin-8-yl)ethan-1-one]
		74.3	66.7	CC(=O)c1ccc2c(c1)[C@@H]1C=CC[C@@H]1[C@H](c1cc3c(cc1Br)OCO3)N2 (single isomer, unassigned) [SRR G-1]
